# Measurements: patent US20250034254A1, “USE OF ANTI-PD-1 ANTIBODY IN COMBINATION WITH CHEMOTHERAPY IN TREATING ESOPHAGEAL CANCER” (SHANGHAI JUNSHI BIOSCIENCES CO., LTD., priority 2021, published 2025)
# Columns and labels:
# [1] = system: patients with advanced or metastatic esophageal squamous cell carcinoma; experiment: Phase III clinical study of toripalimab (JS001) or placebo in combination with first-line chemotherapy: efficacy (ITT, RECIST 1.1); assay type: in vivo, human; conditions: for Objective response rate (ORR) / Objective response rate (ORR), number of subjects: RECIST 1.1; for DCR inter-group difference (95% CI) / ORR inter-group difference (95% CI): JS001 + TP versus Placebo + TP; for Duration of response (DOR), median: patients with BOR of CR or PR
# Excerpt: (§1) This is a randomized, double-blind, placebo-controlled, multicenter, phase III clinical study evaluating the efficacy and safety of toripalimab (JS001) or placebo in combination with first-line chemotherapy in patients with advanced or metastatic esophageal squamous cell carcinoma that are not previously treated with systemic chemotherapy and exploring the population with optimal biomarker prediction.
# Eligible subjects shall meet the following criteria: (1) aged between 18 and 75 years; (2) histologically or pathologically confirmed metastatic or relapsed esophageal squamous cell carcinoma; (3) previously not treated for relapsed or metastatic ESCC; (4) at least one measurable lesion (according to RECIST 1.1); (5) an ECOG score of 0 or 1; (6) normal organ functions.
# (§2) Approximately 514 patients with advanced or metastatic esophageal squamous cell carcinoma were randomized into two groups in a ratio of 1:1, with the treatment group receiving toripalimab in combination with first-line chemotherapy and the control group receiving placebo in combination with first-line chemotherapy. The patients were stratified by ECOG score (0 vs 1) and previous radiotherapy (present vs absence).
# (§3) After randomization, the patients were subject to combination chemotherapy, receiving toripalimab or placebo+first-line chemotherapy for up to 6 cycles. After that, the patients were subject to maintenance therapy, continuously receiving toripalimab or placebo treatment until disease progression, intolerable toxicity, withdrawal from the study or up to 2 years.
# (§4) Toripalimab 240 mg/placebo was administered by intravenous infusion once every three weeks (Q3W) in treatment cycles of 21 days. Treatment continued until the patients met the discontinuation criteria, i.e., recorded disease progression, unacceptable AE, investigator-assessed unsuitability for continued treatment, withdrawal of informed consent, 2 years of JS001 treatment or other reasons as specified in the protocol.
# as §4, with “Toripalimab injection” for “Toripalimab”, “Q3W” for “once every three weeks (Q3W)”, “patient” for “patients”, “AEs,” for “AE,”
# The patients received JS001/placebo+first-line chemotherapy during the combination chemotherapy period (up to 6 cycles). After that, the patients were subject to maintenance monotherapy, continuously receiving JS001/placebo treatment until disease progression, intolerable toxicity, withdrawal from the study or up to 2 years.
# (§5) Intent-to-Treat (ITT) set: including all randomized patients during the primary study period. This analysis set was used as the primary analysis set for efficacy analysis. Per protocol set (PPS): including all ITT population having valid baseline information without major violation to the protocol that may affect the efficacy analysis. The PPS population was determined based on actual protocol violations before database lock of the study. The PPS population was used for sensitivity analysis of the primary efficacy endpoints as well as part of the secondary efficacy endpoints. Safety analysis set (SS): including all patients who received at least one dose of the study drug (JS001/placebo/chemotherapeutic agent).
# Unless otherwise specified, the efficacy analysis was based on the ITT set by treatment. […]
# [2] = Phase III clinical study of toripalimab (JS001) or placebo in combination with first-line chemotherapy: safety (SS population); conditions: human, in vivo
# Excerpt: as §1, §2, §3, §4, §5
# All safety analyses were based on the SS population (514 patients), including 257 patients in the treatment group and 257 patients in the control group. Both groups were sufficiently exposed to JS001+chemotherapy treatment or placebo+chemotherapy treatment. The primary safety analysis results based on the SS population in the double-blind phase of the primary study are as follows: […]
# [3] = BICR-assessed, listed as treatment group
# [4] = ITT, as of Mar. 22, 2021, median follow-up 7.343 months
# [5] = ITT, assessed by the investigator
substance,measurement,setting,value
JS001 + TP: toripalimab 240 mg Q3W in combination with first-line chemotherapy TP (paclitaxel 175 mg/m^2 + cisplatin 75 mg/m^2),6-month DOR,[1]; BICR-assessed,47.4%
same,12-month DOR (1-year DOR rate),[1]; BICR-assessed,28.2%
same,Best overall response: Complete response (CR),[1]; BICR-assessed,(11.7) %
same,"Best overall response: Complete response (CR), number of subjects",[1]; BICR-assessed,30
same,"Best overall response: Not applicable, number of subjects",[1]; BICR-assessed,0
same,"Best overall response: Not evaluable (NE), number of subjects",[1]; BICR-assessed,0
same,Best overall response: Partial response (PR),[1]; BICR-assessed,(57.6) %
same,"Best overall response: Partial response (PR), number of subjects",[1]; BICR-assessed,148
same,Best overall response: Progressive disease (PD),[1]; BICR-assessed,(7.0) %
same,"Best overall response: Progressive disease (PD), number of subjects",[1]; BICR-assessed,18
same,"Best overall response: Stable disease (SD), number of subjects",[1]; BICR-assessed,51
same,Best overall response: non-CR/non-PD,[1]; BICR-assessed,(0.4) %
same,"Best overall response: non-CR/non-PD, number of subjects",[1]; BICR-assessed,1
same,DOR HR (95% CI),[1]; BICR-assessed,"0.58 (0.412, 0.810), P = 0.00136"
same,Disease control rate (DCR),[1]; BICR-assessed,89.1%
same,"Disease control rate (DCR), number of subjects",[1]; BICR-assessed,229
same,Objective response rate (ORR),[1]; BICR-assessed,69.3%
same,"Objective response rate (ORR), number of subjects",[1]; BICR-assessed,178
same,DCR inter-group difference (95% CI),[1]; BICR-assessed,"7.1 (1.1, 13.1) %"
same,ORR inter-group difference (95% CI),[1]; BICR-assessed,"17.2 (9.0, 25.4) %"
same,ORR inter-group difference (95% CI),[1]; [3],17.2%
same,DOR HR (95% CI),[1]; [3],0.58
same,"Duration of response (DOR), median",[1]; BICR-assessed,5.6 month
same,PFS subpopulation analysis,"[1]; BIRC, ECOG score, previous radiotherapy, disease stage, PD-L1 expression, 11q13, TMB subpopulations",superiority in PFS
same,OS subpopulation analysis,"[1]; ECOG score, previous radiotherapy, disease stage, PD-L1 expression, 11q13, TMB subpopulations",superiority in OS
same,"OS hazard ratio (HR), treatment vs control group",[1]; ITT population,0.58
same,median OS,[1]; ITT population,17.0 months
same,prolongation of median OS versus chemotherapy,[1]; ITT population,6 months
same,reduction of death hazard versus chemotherapy,[1]; ITT population,42%
same,"deaths reported, % of patients",[1]; [4],27.2%
same,"deaths reported, number of patients",[1]; [4],70
same,1-year PFS rate,"[1]; ITT, assessed by BIRC",27.8%
same,"PFS hazard ratio (HR), treatment vs control group","[1]; ITT, assessed by BIRC",0.58
same,reduction of progression or death hazard versus chemotherapy,"[1]; ITT, assessed by BIRC",42%
same,median PFS,"[1]; ITT, assessed by BIRC based on RECIST 1.1",5.7 months
same,"PFS hazard ratio (HR), treatment vs control group",[1]; [5],0.58
same,reduction of progression or death hazard versus chemotherapy,[1]; [5],42%
same,median PFS,"[1]; ITT, assessed by the investigator based on RECIST 1.1",7.0 months
same,6-month DOR,[1]; Investigator-assessed,55.6%
same,12-month DOR,[1]; Investigator-assessed,30.9%
same,Best overall response: Complete response (CR),[1]; Investigator-assessed,(5.1) %
same,"Best overall response: Complete response (CR), number of subjects",[1]; Investigator-assessed,13
same,"Best overall response: Not evaluable (NE), number of subjects",[1]; Investigator-assessed,0
same,Best overall response: Partial response (PR),[1]; Investigator-assessed,(67.3) %
same,"Best overall response: Partial response (PR), number of subjects",[1]; Investigator-assessed,173
same,Best overall response: Progressive disease (PD),[1]; Investigator-assessed,(3.9) %
same,"Best overall response: Progressive disease (PD), number of subjects",[1]; Investigator-assessed,10
same,"Best overall response: Stable disease (SD), number of subjects",[1]; Investigator-assessed,52
same,DOR HR (95% CI),[1]; Investigator-assessed,"0.50 (0.359, 0.684), P = 0.00001"
same,Disease control rate (DCR),[1]; Investigator-assessed,92.6%
same,"Disease control rate (DCR), number of subjects",[1]; Investigator-assessed,238
same,Objective response rate (ORR),[1]; Investigator-assessed,72.4%
same,"Objective response rate (ORR), number of subjects",[1]; Investigator-assessed,186
same,DCR inter-group difference (95% CI),[1]; Investigator-assessed,"5.5 (0.3, 10.7) %"
same,ORR inter-group difference (95% CI),[1]; Investigator-assessed,"14.1 (6.0, 22.2) %"
same,ORR inter-group difference (95% CI),"[1]; Investigator-assessed, listed as treatment group",14%
same,"Duration of response (DOR), median",[1]; Investigator-assessed,4.2 month
same,prolongation of DOR over the control group,[1]; assessed by BIRC,1.4 months
same,SAE: anemia,[2],1.2%
same,SAE: asthenia,[2],1.2%
same,SAE: bone marrow depression,[2],1.2%
same,SAE: decreased leukocyte count,[2],2.3%
same,SAE: decreased neutrophil count,[2],1.6%
same,SAE: decreased platelet count,[2],1.6%
same,SAE: dysphagia,[2],1.2%
same,SAE: infectious pneumonitis,[2],5.1%
same,SAE: vomiting,[2],8.9%
same,TEAE: alopecia,[2],35.4%
same,TEAE: anemia,[2],77.0%
same,TEAE: asthenia,[2],41.6%
same,TEAE: constipation,[2],24.1%
same,TEAE: decreased appetite,[2],39.3%
same,TEAE: decreased leukocyte count,[2],67.7%
same,TEAE: decreased neutrophil count,[2],66.9%
same,TEAE: decreased platelet count,[2],28.4%
same,TEAE: diarrhea,[2],23.0%
same,TEAE: nausea,[2],42.8%
same,TEAE: vomiting,[2],40.1%
same,TEAE: weight loss,[2],28.8%
same,"immune-related adverse events (irAEs), % of patients",[2],37%
same,"immune-related adverse events (irAEs), number of patients",[2],95
same,irAE resulting in death,[2],no irAE resulting in death was reported
same,"irAEs of grade 3 or higher, % of subjects",[2],6.6%
same,"irAEs of grade 3 or higher, number of subjects",[2],17
same,proportion of SAEs of grade 3 or higher as per CTCAE,[2],30.0%
same,proportion of TEAEs of grade 3 or higher as per CTCAE,[2],73.2%
same,proportion of patients who experienced at least 1 TEAE,[2],99.2%
same,proportion of treatment-emerged SAEs,[2],36.2%
